Marks after values point to notes of the source that are not given here.
Experiment: 28-day rat study, plasma metabolite profiling: markers for Duodenum iron deficiency;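 further: rats given the compounds once a day across 28 days, plasma from fasted animals profiled by GC-MS and LC-MS, separate control groups of five rats per sex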
Details: for Cholic acid, treatment ratio versus control / Choline plasmalogen (C18,C20:4), treatment ratio versus control / Citrate, treatment ratio versus control / Creatinine, treatment ratio versus control / DAG (C18:1,C18:2), treatment ratio versus control / Hippuric acid, treatment ratio versus control / Indole-3-propionic acid, treatment ratio versus control / Methionine, treatment ratio versus control / Proline, treatment ratio versus control / Serine, treatment ratio versus control / TAG (C16:0,C18:1,C18:3), treatment ratio versus control / TAG (C18:1,C18:2), treatment ratio versus control / TAG (C18:2,C18:2), treatment ratio versus control / TAG (C18:2,C18:3), treatment ratio versus control / TAG (DAG-Fragment), treatment ratio versus control / TAG No 02, treatment ratio versus control / TAG No 07, treatment ratio versus control / Threonine, treatment ratio versus control / alpha-Tocopherol, treatment ratio versus control / Alanine, treatment ratio versus control / Campesterol, treatment ratio versus control / Glutamate, treatment ratio versus control / Glutamine, treatment ratio versus control / Lysophosphatidylcholine (C20:4), treatment ratio versus control / Malate, treatment ratio versus control / Ornithine, treatment ratio versus control / Phosphatidylcholine (C18:0, C22:6), treatment ratio versus control / Threonic acid, treatment ratio versus control: plasma; for capability of inducing an iron adsorption disorder: statement in words
Experimental: A group of each 5 male and female rats was dosed once daily with the indicated compounds (see Table 4, below for compounds, applied doses and administration details) over 28 days.
Each dose group in the studies consisted of five rats per sex. Additional groups of each 5 male and female animals served as controls. Before starting the treatment period, animals, which were 62-64 days old when supplied, were acclimatized to the housing and environmental conditions for 7 days. All animals of the animal population were kept under the same constant temperature (20-24±3° C.) and the same constant humidity (30-70%). The animals of the animal population were fed ad libitum. The food to be used was essentially free of chemical or microbial contaminants. Drinking water was also offered ad libitum. Accordingly, the water was free of chemical and microbial contaminants as laid down in the European Drinking Water Directive 98/83/EG. The illumination period was 12 hours light followed by 12 hours darkness (12 hours light, from 6:00 to 18:00, and 12 hours darkness, from 18:00 to 6:00). The studies were performed in an AAALAC-approved laboratory in accordance with the German Animal Welfare Act and the European Council Directive 86/609/EE. The test system was arranged according to the OECD 407 guideline for the testing of chemicals for repeated dose 28-day oral toxicity study in rodents.
In the morning of day 7, 14, and 28, blood was taken from the retroorbital venous plexus from fasted anaesthetized animals. From each animal, 1 ml of blood was collected with EDTA as anticoagulant. The samples were centrifuged for generation of plasma. All plasma samples were covered with a N2 atmosphere and then stored at −80° C. until analysis.
For mass spectrometry-based metabolite profiling analyses plasma samples were extracted and a polar and a non-polar (lipid) fraction was obtained. For GC-MS analysis, the non-polar fraction was treated with methanol under acidic conditions to yield the fatty acid methyl esters. Both fractions were further derivatised with O-methyl-hydroxyamine hydrochloride and pyridine to convert Oxo-groups to O-methyloximes and subsequently with a silylating agent before analysis. In LC-MS analysis, both fractions were reconstituted in appropriate solvent mixtures. HPLC was performed by gradient elution on reversed phase separation columns.
Steroids and their metabolites were measured by online SPE-LC-MS (Solid phase extraction-LC-MS).
Following comprehensive analytical validation steps, the data for each analyte were normalized against data from pool samples. These samples were run in parallel through the whole process to account for process variability. The significance of treatment group values specific for sex, treatment duration and metabolite was determined by comparing means of the treated groups to the means of the respective untreated control groups using WELCH-test and quantified with treatment ratios versus control and p-values.

## CNC(=O)/C(=N/OC)c1ccccc1COc1cc(C)ccc1C [Dimoxystrobin, (E)-2-(methoxyimino)-N-methyl-2-[alpha-(2,5-xylyloxy)-o-tolyl]acetamide]
Female rats, day 7
  Cholic acid, treatment ratio versus control: 70.58*
  Choline plasmalogen (C18,C20:4), treatment ratio versus control: 1.11
  Citrate, treatment ratio versus control: 1.22*
  Creatinine, treatment ratio versus control: 0.71
  DAG (C18:1,C18:2), treatment ratio versus control: 1.9*
  Hippuric acid, treatment ratio versus control: 0.85
  Indole-3-propionic acid, treatment ratio versus control: 1.53
  Methionine, treatment ratio versus control: 1.05
  Proline, treatment ratio versus control: 1.28*
  Serine, treatment ratio versus control: 1.5*
  TAG (C16:0,C18:1,C18:3), treatment ratio versus control: 4.14*
  TAG (C18:1,C18:2), treatment ratio versus control: 4.42*
  TAG (C18:2,C18:2), treatment ratio versus control: 5.1*
  TAG (C18:2,C18:3), treatment ratio versus control: 4.2*
  TAG (DAG-Fragment), treatment ratio versus control: 4.39*
  TAG No 02, treatment ratio versus control: 0.75*
  TAG No 07, treatment ratio versus control: 2.96*
  Threonine, treatment ratio versus control: 1.62*
  alpha-Tocopherol, treatment ratio versus control: 1.74*
Female rats, day 14
  Cholic acid, treatment ratio versus control: 39.73*
  Choline plasmalogen (C18,C20:4), treatment ratio versus control: 1.13*
  Citrate, treatment ratio versus control: 1.17*
  Creatinine, treatment ratio versus control: 1.07
  DAG (C18:1,C18:2), treatment ratio versus control: 1.96*
  Hippuric acid, treatment ratio versus control: 0.51*
  Indole-3-propionic acid, treatment ratio versus control: 0.87
  Methionine, treatment ratio versus control: 1.18*
  Proline, treatment ratio versus control: 1.35*
  Serine, treatment ratio versus control: 1.66*
  TAG (C16:0,C18:1,C18:3), treatment ratio versus control: 3.15
  TAG (C18:1,C18:2), treatment ratio versus control: 3.71*
  TAG (C18:2,C18:2), treatment ratio versus control: 3.83*
  TAG (C18:2,C18:3), treatment ratio versus control: 2.76*
  TAG (DAG-Fragment), treatment ratio versus control: 4.43*
  TAG No 02, treatment ratio versus control: 0.73*
  TAG No 07, treatment ratio versus control: 1.7
  Threonine, treatment ratio versus control: 1.34*
  alpha-Tocopherol, treatment ratio versus control: 1.43*
Female rats, day 28
  Cholic acid, treatment ratio versus control: 6.46*
  Choline plasmalogen (C18,C20:4), treatment ratio versus control: 1.11*
  Citrate, treatment ratio versus control: 1.21*
  Creatinine, treatment ratio versus control: 0.74
  DAG (C18:1,C18:2), treatment ratio versus control: 1.58*
  Hippuric acid, treatment ratio versus control: 0.29*
  Indole-3-propionic acid, treatment ratio versus control: 0.58*
  Methionine, treatment ratio versus control: 1.15*
  Proline, treatment ratio versus control: 1.25*
  Serine, treatment ratio versus control: 1.41*
  TAG (C16:0,C18:1,C18:3), treatment ratio versus control: 2
  TAG (C18:1,C18:2), treatment ratio versus control: 1.95
  TAG (C18:2,C18:2), treatment ratio versus control: 2.48*
  TAG (C18:2,C18:3), treatment ratio versus control: 2.26
  TAG (DAG-Fragment), treatment ratio versus control: 2.23*
  TAG No 02, treatment ratio versus control: 0.77*
  TAG No 07, treatment ratio versus control: 1.45
  Threonine, treatment ratio versus control: 1.23*
  alpha-Tocopherol, treatment ratio versus control: 1.32
Male rats, day 7
  Alanine, treatment ratio versus control: 1.41*
  Campesterol, treatment ratio versus control: 1.13
  Citrate, treatment ratio versus control: 1.19*
  Creatinine, treatment ratio versus control: 0.95
  Glutamate, treatment ratio versus control: 0.93
  Glutamine, treatment ratio versus control: 0.79*
  Hippuric acid, treatment ratio versus control: 0.91
  Lysophosphatidylcholine (C20:4), treatment ratio versus control: 0.96
  Malate, treatment ratio versus control: 1.25*
  Methionine, treatment ratio versus control: 1.08*
  Ornithine, treatment ratio versus control: 1.19*
  Phosphatidylcholine (C18:0, C22:6), treatment ratio versus control: 1.12*
  Serine, treatment ratio versus control: 1.28*
  Threonic acid, treatment ratio versus control: 1.33*
  Threonine, treatment ratio versus control: 1.14
Male rats, day 14
  Alanine, treatment ratio versus control: 1.59*
  Campesterol, treatment ratio versus control: 1.16
  Citrate, treatment ratio versus control: 1.32*
  Creatinine, treatment ratio versus control: 0.63*
  Glutamate, treatment ratio versus control: 0.74*
  Glutamine, treatment ratio versus control: 0.77*
  Hippuric acid, treatment ratio versus control: 0.48*
  Lysophosphatidylcholine (C20:4), treatment ratio versus control: 0.93*
  Malate, treatment ratio versus control: 1.16
  Methionine, treatment ratio versus control: 1.16*
  Ornithine, treatment ratio versus control: 1.52*
  Phosphatidylcholine (C18:0, C22:6), treatment ratio versus control: 1.47*
  Serine, treatment ratio versus control: 1.32*
  Threonic acid, treatment ratio versus control: 1.29*
  Threonine, treatment ratio versus control: 1.29*
Male rats, day 28
  Alanine, treatment ratio versus control: 1.28*
  Campesterol, treatment ratio versus control: 0.59*
  Citrate, treatment ratio versus control: 1.57*
  Creatinine, treatment ratio versus control: 0.26*
  Glutamate, treatment ratio versus control: 0.78*
  Glutamine, treatment ratio versus control: 0.83*
  Hippuric acid, treatment ratio versus control: 1.43
  Lysophosphatidylcholine (C20:4), treatment ratio versus control: 1.03
  Malate, treatment ratio versus control: 0.86
  Methionine, treatment ratio versus control: 1.01
  Ornithine, treatment ratio versus control: 1.47*
  Phosphatidylcholine (C18:0, C22:6), treatment ratio versus control: 1.35*
  Serine, treatment ratio versus control: 1.29*
  Threonic acid, treatment ratio versus control: 1.46*
  Threonine, treatment ratio versus control: 1.21*
  capability of inducing an iron adsorption disorder: capable of inducing an iron adsorption disorder

## CNC(=O)/C(=N/OC)c1ccccc1CO/N=C(C)/C(=N/OC)C(/C)=N/OC [Orysastrobin, (2E)-2-(methoxyimino)-2-{2-[(3E,5E,6E)-5-(methoxyimino)-4,6-dimethyl-2,8-dioxa-3,7-diazanona-3,6-dien-1-yl]phenyl}-N-methylacetamide]
Female rats, day 7
  Cholic acid, treatment ratio versus control: 15.95
  Choline plasmalogen (C18,C20:4), treatment ratio versus control: 1.18*
  Citrate, treatment ratio versus control: 1.24*
  Creatinine, treatment ratio versus control: 0.9
  DAG (C18:1,C18:2), treatment ratio versus control: 2.21*
  Hippuric acid, treatment ratio versus control: 0.91
  Indole-3-propionic acid, treatment ratio versus control: 0.54
  Methionine, treatment ratio versus control: 1.33*
  Proline, treatment ratio versus control: 1.03
  Serine, treatment ratio versus control: 1.32*
  TAG (C16:0,C18:1,C18:3), treatment ratio versus control: 1.02
  TAG (C18:1,C18:2), treatment ratio versus control: 1.34*
  TAG (C18:2,C18:2), treatment ratio versus control: 1.63*
  TAG (C18:2,C18:3), treatment ratio versus control: 1.37*
  TAG (DAG-Fragment), treatment ratio versus control: 1.62*
  TAG No 02, treatment ratio versus control: 1
  TAG No 07, treatment ratio versus control: 1.19
  Threonine, treatment ratio versus control: 1.83*
  alpha-Tocopherol, treatment ratio versus control: 1.27*
Female rats, day 14
  Cholic acid, treatment ratio versus control: 2.8*
  Choline plasmalogen (C18,C20:4), treatment ratio versus control: 1.13*
  Citrate, treatment ratio versus control: 1.04
  Creatinine, treatment ratio versus control: 1.08
  DAG (C18:1,C18:2), treatment ratio versus control: 2.83*
  Hippuric acid, treatment ratio versus control: 1.04
  Indole-3-propionic acid, treatment ratio versus control: 0.73
  Methionine, treatment ratio versus control: 1.12*
  Proline, treatment ratio versus control: 1.08*
  Serine, treatment ratio versus control: 1.26*
  TAG (C16:0,C18:1,C18:3), treatment ratio versus control: 2.42*
  TAG (C18:1,C18:2), treatment ratio versus control: 2.28*
  TAG (C18:2,C18:2), treatment ratio versus control: 3.02*
  TAG (C18:2,C18:3), treatment ratio versus control: 1.94*
  TAG (DAG-Fragment), treatment ratio versus control: 3.03*
  TAG No 02, treatment ratio versus control: 0.84*
  TAG No 07, treatment ratio versus control: 1.99*
  Threonine, treatment ratio versus control: 1.83*
  alpha-Tocopherol, treatment ratio versus control: 1.24*
Female rats, day 28
  Cholic acid, treatment ratio versus control: 5.13*
  Choline plasmalogen (C18,C20:4), treatment ratio versus control: 1.26*
  Citrate, treatment ratio versus control: 1.08*
  Creatinine, treatment ratio versus control: 0.84
  DAG (C18:1,C18:2), treatment ratio versus control: 3.11*
  Hippuric acid, treatment ratio versus control: 0.41*
  Indole-3-propionic acid, treatment ratio versus control: 0.64*
  Methionine, treatment ratio versus control: 1.11*
  Proline, treatment ratio versus control: 1.1
  Serine, treatment ratio versus control: 1.16*
  TAG (C16:0,C18:1,C18:3), treatment ratio versus control: 1.86*
  TAG (C18:1,C18:2), treatment ratio versus control: 1.98*
  TAG (C18:2,C18:2), treatment ratio versus control: 1.79*
  TAG (C18:2,C18:3), treatment ratio versus control: 1.63*
  TAG (DAG-Fragment), treatment ratio versus control: 2.22*
  TAG No 02, treatment ratio versus control: 1.02
  TAG No 07, treatment ratio versus control: 1.5
  Threonine, treatment ratio versus control: 1.58*
  alpha-Tocopherol, treatment ratio versus control: 1.33*
Male rats, day 7
  Alanine, treatment ratio versus control: 1.15*
  Campesterol, treatment ratio versus control: 1.14
  Citrate, treatment ratio versus control: 1.12*
  Creatinine, treatment ratio versus control: 1.04
  Glutamate, treatment ratio versus control: 1.09
  Glutamine, treatment ratio versus control: 0.96
  Hippuric acid, treatment ratio versus control: 0.69
  Lysophosphatidylcholine (C20:4), treatment ratio versus control: 0.86*
  Malate, treatment ratio versus control: 1.17*
  Methionine, treatment ratio versus control: 1.05*
  Ornithine, treatment ratio versus control: 1.28*
  Phosphatidylcholine (C18:0, C22:6), treatment ratio versus control: 1.39*
  Serine, treatment ratio versus control: 1.17*
  Threonic acid, treatment ratio versus control: 2.29*
  Threonine, treatment ratio versus control: 1.28*
Male rats, day 14
  Alanine, treatment ratio versus control: 1.05
  Campesterol, treatment ratio versus control: 1.07
  Citrate, treatment ratio versus control: 1.04
  Creatinine, treatment ratio versus control: 1.03
  Glutamate, treatment ratio versus control: 0.77*
  Glutamine, treatment ratio versus control: 0.81*
  Hippuric acid, treatment ratio versus control: 0.58*
  Lysophosphatidylcholine (C20:4), treatment ratio versus control: 0.77*
  Malate, treatment ratio versus control: 1.08
  Methionine, treatment ratio versus control: 1
  Ornithine, treatment ratio versus control: 1.31*
  Phosphatidylcholine (C18:0, C22:6), treatment ratio versus control: 1.34*
  Serine, treatment ratio versus control: 1.1*
  Threonic acid, treatment ratio versus control: 1.86*
  Threonine, treatment ratio versus control: 1.23
Male rats, day 28
  Alanine, treatment ratio versus control: 1.02
  Campesterol, treatment ratio versus control: 0.49*
  Citrate, treatment ratio versus control: 1.09*
  Creatinine, treatment ratio versus control: 1.16
  Glutamate, treatment ratio versus control: 0.88
  Glutamine, treatment ratio versus control: 0.71*
  Hippuric acid, treatment ratio versus control: 0.48*
  Lysophosphatidylcholine (C20:4), treatment ratio versus control: 0.81*
  Malate, treatment ratio versus control: 1.16
  Methionine, treatment ratio versus control: 1.1*
  Ornithine, treatment ratio versus control: 1.21*
  Phosphatidylcholine (C18:0, C22:6), treatment ratio versus control: 1.19*
  Serine, treatment ratio versus control: 1.26*
  Threonic acid, treatment ratio versus control: 2.17*
  Threonine, treatment ratio versus control: 1.14*
  capability of inducing an iron adsorption disorder: capable of inducing an iron adsorption disorder
